Results reported in patent US5476966A, “Method for depletion of glutathione” (Cornell Research Foundation, Inc., priority 1995, dated 1995).

What was measured:
[1] = biological target: T1, γ-Glutamylcysteine Synthetase (Rattus norvegicus, UniProt P19468); test: Inhibition of γ-glutamylcysteine synthetase (preincubation assay); assay type: biochemical; settings: 30 min preincubation, 22° C.; read-out: Kiapp; Concentration for 50% Inhibition
T1 construct: Rat kidney γ-Glutamylcysteine synthetase was purified from Sprague Dawley (Taconic Farms) rats; from tissue; host or cells: rat kidney (Sprague Dawley, Taconic Farms)
T1 sequence (P19468 1-637): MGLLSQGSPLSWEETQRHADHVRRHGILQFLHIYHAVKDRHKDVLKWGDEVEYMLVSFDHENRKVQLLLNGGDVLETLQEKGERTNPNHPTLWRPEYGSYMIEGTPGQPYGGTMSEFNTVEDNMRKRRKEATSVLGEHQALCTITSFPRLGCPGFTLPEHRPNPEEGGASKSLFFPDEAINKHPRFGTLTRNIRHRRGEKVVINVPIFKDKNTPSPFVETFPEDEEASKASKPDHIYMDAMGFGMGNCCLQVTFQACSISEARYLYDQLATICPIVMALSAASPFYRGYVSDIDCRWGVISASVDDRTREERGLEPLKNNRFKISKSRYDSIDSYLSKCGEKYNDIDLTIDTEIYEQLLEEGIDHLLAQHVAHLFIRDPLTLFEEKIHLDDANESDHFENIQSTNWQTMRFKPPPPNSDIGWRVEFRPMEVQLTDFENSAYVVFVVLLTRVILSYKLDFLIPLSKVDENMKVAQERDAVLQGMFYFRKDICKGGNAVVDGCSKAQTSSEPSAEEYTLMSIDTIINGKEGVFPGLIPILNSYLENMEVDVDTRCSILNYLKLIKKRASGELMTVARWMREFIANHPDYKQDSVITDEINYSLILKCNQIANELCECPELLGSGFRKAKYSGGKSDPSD
T1 sequence (P48508 1-274 partner): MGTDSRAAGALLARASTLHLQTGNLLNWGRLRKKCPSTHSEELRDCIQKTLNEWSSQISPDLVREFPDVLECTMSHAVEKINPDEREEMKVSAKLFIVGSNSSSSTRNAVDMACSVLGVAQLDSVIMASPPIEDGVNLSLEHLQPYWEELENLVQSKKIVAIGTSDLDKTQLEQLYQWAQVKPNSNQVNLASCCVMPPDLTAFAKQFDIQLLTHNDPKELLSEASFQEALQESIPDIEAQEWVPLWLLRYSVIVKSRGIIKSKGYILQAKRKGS
Procedure: Rat kidney γ-Glutamylcysteine synthetase was purified from Sprague Dawley (Taconic Farms) rats (Seelig., Methods in Enzymology, 1985, 113:379-390).
The preincubation assay of γ-glutamylcysteine synthetase is given below. γ-Glutamylcysteine synthetase (4.6 units) was added to a mixture (final volume, 50 μl) containing 100 mM Tris/HCl (pH 8.2), 5 mM ATP, 20 mM MgCl2, 0.2 mM EDTA, and the sulfoximine being evaluated. After incubation at 22° C. for 30 minutes, a 45 μl aliquot of the preincubation mixture was added to the assay as follows.
γ-Glutamylcysteine synthetase was assayed as follows (Griffith et al, J. Biological Chem., 1979, 254:1205-1210). The reaction mixture (final volume, 1.0 ml) contained 100 mM Tris/HCl (pH 8.2), 120 mM KCl, 5 mM phosphoenolpyruvate, 20 mM MgCl2, 10 mM sodium L-glutamate, 10 mM L-α-aminobutyric acid, 0.2 mM EDTA, 0.4 mM NADH, pyruvate kinase (10 IU), and lactate dehydrogenase (10 IU). The reaction (37° C.) was initiated by the addition of γ-glutamylcysteine synthetase and the oxidation of NADH, equivalent to ADP formation, was recorded at 340 nm.

[2] = test system: glutathione; test: Tissue glutathione levels after intraperitoneal administration of sulfoximines; assay type: in vivo, mouse; settings: 2 mmol/Kg i.p.
Procedure: Male mice (Swiss Webster) were fasted overnight (about 16 hr). L-3-methylbuthionine-SR-sulfoximine (3 mBSO; L-S-3-methylbutyl homocysteine-SR-sulfoximine; L-S-isopentyl homocysteine-SR-sulfoximine), L-buthionine-SR-sulfoximine(BSO; L-S-butyl homocysteine-SR-sulfoximine), L-2-methylbuthiomine-SR-sulfoximine (2 mBSO, L-S-2methylbutyl homocysteine-SR-sulfoximine), or saline (0.9% NaCl) were administered to mice at 2 mmol/Kg intraperitoneally (50 mM, Ph ^~ 7). At the times indicated, plasma and tissues were obtained and assayed for glutathione (GSH+1/2 GSSG) as described by Anderson, Methods in Enzymology, 1985, 113:548-555.

[3] = test system: glutathione; test: Tissue glutathione after oral administration of sulfoximines (Table 5); assay type: in vivo, mouse; settings: for % Decrease in glutathione / Glutathione level: 2 mmol/Kg oral
Procedure: Male mice (Swiss Webster) were fasted overnight (about 16 hr.) L-buthionine-SR-sulfoximine (BSO, S-n-butyl homocysteine-SR-sulfoximine), L-S-cyclohexylmethyl homocysteine-SR-sulfoximine (CHMSO); L-S-2-ethylbutylhomocysteine-SR-sulfoximine (2 EtBSO, L-S-2-ethylbutyl homocysteine-SR-sulfoximine, or saline (0.9% NaCl) were administered to mice at 2 mmol/Kg by intubation (100 mM; pH about 1 with HCl (200 mM). At the times indicated, plasma and tissues were obtained and assayed for glutathione (GSH+1/2 GSSG) as described by Anderson, Methods in Enzymology, 1985, 113:548-555. (See Table 4 and 5.)

[4] = test system: human lymphoid cell lines; settings: cited from earlier work
[5] = test system: human lymphoid cell lines; settings: cited from earlier work; remark: listed apart in the source
[6] = test system: V79 cells; settings: cited from earlier work
[7] = test system: Trypanosoma brucei; settings: six mice treated, cited from earlier work
[8] = test system: resistant tumors; settings: continuous intraperitoneal infusion of BSO; cited from earlier work
[9] = test system: resistant cells; settings: glutathione depletion by BSO; cited from earlier work
[10] = test system: human ovarian tumor cells; settings: grown in nude mice; cited from earlier work

CCCCS(=N)(=O)CCC(N)C(=O)O [BSO, L-S-butyl homocysteine-SR-sulfoximine]
Ki [1]: 600 nM
% Decrease in glutathione ([2]; brain, 2 hr): 10%
Glutathione level ([2]; brain, 2 hr): 2.08 µmol/g
% Decrease in glutathione ([2]; brain, 12 hr): 17%
Glutathione level ([2]; brain, 12 hr): 1.93 µmol/g
% Decrease in glutathione ([2]; heart, 2 hr): 14%
Glutathione level ([2]; heart, 2 hr): 1.16 µmol/g
% Decrease in glutathione ([2]; heart, 12 hr): 57%
Glutathione level ([2]; heart, 12 hr): 0.56 µmol/g
% Decrease in glutathione ([2]; kidney, 2 hr): 82%
Glutathione level ([2]; kidney, 2 hr): 0.76 µmol/g
% Decrease in glutathione ([2]; kidney, 12 hr): 79%
Glutathione level ([2]; kidney, 12 hr): 0.75 µmol/g
% Decrease in glutathione ([2]; liver, 2 hr): 72%
Glutathione level ([2]; liver, 2 hr): 1.50 µmol/g
% Decrease in glutathione ([2]; liver, 12 hr): 32%
Glutathione level ([2]; liver, 12 hr): 3.37 µmol/g
% Decrease in glutathione ([2]; plasma, 2 hr): 66%
Glutathione level ([2]; plasma, 2 hr): 10.1 µM
% Decrease in glutathione ([2]; plasma, 12 hr): 43%
Glutathione level ([2]; plasma, 12 hr): 16.3 µM
decrease in brain glutathione levels ([3]; 2 mmol/kg, 12 hours, experimental error about 5%): ~20%
decrease in glutathione levels (cardio-toxicity) ([3]; 2 hours, 2 mmol/kg, mice): 22%
% Decrease in glutathione ([3]; brain, 2 hr): 0%
Glutathione level ([3]; brain, 2 hr): 2.17 µmol/g
% Decrease in glutathione ([3]; brain, 4 hr): 10%
Glutathione level ([3]; brain, 4 hr): 1.95 µmol/g
% Decrease in glutathione ([3]; brain, 8 hr): 12%
Glutathione level ([3]; brain, 8 hr): 2.04 µmol/g
% Decrease in glutathione ([3]; brain, 12 hr): 18%
Glutathione level ([3]; brain, 12 hr): 1.64 µmol/g
% Decrease in glutathione ([3]; heart, 2 hr): 22%
Glutathione level ([3]; heart, 2 hr): 0.86 µmol/g
% Decrease in glutathione ([3]; heart, 4 hr): 17%
Glutathione level ([3]; heart, 4 hr): 0.91 µmol/g
% Decrease in glutathione ([3]; heart, 8 hr): 36%
Glutathione level ([3]; heart, 8 hr): 0.65 µmol/g
% Decrease in glutathione ([3]; heart, 12 hr): 49%
Glutathione level ([3]; heart, 12 hr): 0.58 µmol/g
% Decrease in glutathione ([3]; kidney, 2 hr): 71%
Glutathione level ([3]; kidney, 2 hr): 0.81 µmol/g
% Decrease in glutathione ([3]; kidney, 4 hr): 80%
Glutathione level ([3]; kidney, 4 hr): 0.57 µmol/g
% Decrease in glutathione ([3]; kidney, 8 hr): 86%
Glutathione level ([3]; kidney, 8 hr): 0.44 µmol/g
% Decrease in glutathione ([3]; kidney, 12 hr): 91%
Glutathione level ([3]; kidney, 12 hr): 0.30 µmol/g
% Decrease in glutathione ([3]; liver, 2 hr): 71%
Glutathione level ([3]; liver, 2 hr): 1.50 µmol/g
% Decrease in glutathione ([3]; liver, 4 hr): 87%
Glutathione level ([3]; liver, 4 hr): 0.70 µmol/g
% Decrease in glutathione ([3]; liver, 8 hr): 89%
Glutathione level ([3]; liver, 8 hr): 0.60 µmol/g
% Decrease in glutathione ([3]; liver, 12 hr): 85%
Glutathione level ([3]; liver, 12 hr): 0.73 µmol/g
% Decrease in glutathione ([3]; plasma, 2 hr): 56%
Glutathione level ([3]; plasma, 2 hr): 9.8 µM
% Decrease in glutathione ([3]; plasma, 4 hr): 68%
Glutathione level ([3]; plasma, 4 hr): 7.1 µM
% Decrease in glutathione ([3]; plasma, 8 hr): 78%
Glutathione level ([3]; plasma, 8 hr): 5.1 µM
% Decrease in glutathione ([3]; plasma, 12 hr): 77%
Glutathione level ([3]; plasma, 12 hr): 5.5 µM
disappeared intracellular glutathione found in the medium ([4]; CEM line, L-serine plus borate in medium): About 50%
cell viability on further decrease in glutathione level ([4]; below 0.09 mM glutathione): marked loss of viability
cell viability ([4]; cells with 0.09 mM glutathione (4% of controls)): 85%
cellular glutathione as percent of control levels ([4]; three human lymphoid cell lines, medium containing BSO, 50 hours): about 5%
sensitivity to γ-radiation ([5]; cells with 4-5% of control glutathione): much more sensitive
sensitivity to radiation ([5]; glutathione about 5% of the control levels): marked increase in sensitivity to radiation
oxygen enhancement ratio [6]: decrease of the oxygen enhancement ratio
sensitization to radiation ([6]; hypoxic conditions): sensitization to radiation under hypoxic conditions
cure of infected mice [7]: two mice were apparently cured
survival of infected mice ([7]; versus untreated infected controls): four mice survived significantly longer
life span [8]: increase in the life span
sensitization of tumors to phenylalanine mustard [8]: sensitization of the tumors to the effects of phenylalanine mustard was achieved
reversal of drug resistance [9]: reversal of drug resistance
reversal of resistance [10]: reversal of resistance
